Measurements published in patent US20070129438A1 (priority 2002, published 2007).

Molecular target: abnormal prion protein (Ovis aries, UniProt P23907)
Type: biochemical, sheep

Chain of abnormal prion protein (P23907 25-233 limits assumed): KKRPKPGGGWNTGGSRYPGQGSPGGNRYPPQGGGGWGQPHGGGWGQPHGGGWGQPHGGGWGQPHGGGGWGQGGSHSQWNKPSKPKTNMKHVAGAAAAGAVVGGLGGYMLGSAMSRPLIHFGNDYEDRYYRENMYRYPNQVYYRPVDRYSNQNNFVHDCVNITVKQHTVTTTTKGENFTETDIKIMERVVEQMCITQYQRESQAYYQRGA

## CC(C)C[C@H](N)C(=O)O [leucine]
Leucine 15 mg/mL, PMCA
  suppression of proliferation of abnormal prion protein in vitro: effectively suppressed proliferation of abnormal prion protein
Leucine final concentration 15 mg/mL, up to 10 cycles of incubation-sonication, PK 50 μg/mL
  bands of PK resistant fragments after PMCA (Western blotting): no prominent bands were formed
